For 1 molecule, IC50 results are on record in article PMC7610864, “The Roles of Type 2 Cytotoxic T Cells in Inflammation, Tissue Remodeling, and Prostaglandin (PG) D2 Production Are Attenuated by PGD2 Receptor 2 Antagonism” (The Journal of Immunology Author Choice, 2021).

As usually defined, the IC50 is the concentration that gives 50% inhibition.

The test addresses T1, PGD2 receptor 2 (DP2) (Homo sapiens, UniProt Q9Y5Y4).
T1 construct: gene PTGDR2
T1 sequence (Q9Y5Y4 1-395): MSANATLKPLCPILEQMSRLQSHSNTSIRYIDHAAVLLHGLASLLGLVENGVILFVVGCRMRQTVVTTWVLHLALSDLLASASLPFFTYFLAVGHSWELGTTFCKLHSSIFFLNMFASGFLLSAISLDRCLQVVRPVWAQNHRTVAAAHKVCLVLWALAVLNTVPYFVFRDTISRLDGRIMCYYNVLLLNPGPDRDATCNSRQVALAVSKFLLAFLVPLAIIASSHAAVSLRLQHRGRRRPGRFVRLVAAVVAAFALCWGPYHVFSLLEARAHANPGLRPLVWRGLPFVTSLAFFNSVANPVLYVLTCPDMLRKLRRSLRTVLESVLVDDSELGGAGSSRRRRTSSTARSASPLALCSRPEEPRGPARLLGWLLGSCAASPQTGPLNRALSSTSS

`Cc1c(CC(=O)O)c2cccnc2n1Cc1ccc(S(C)(=O)=O)cc1C(F)(F)F` [fevipiprant]: the 50% inhibitory concentration (IC50) was found to be 3.5 ± 3.6 nM.
